Data on one molecule can be found in patent publication US20070037833A1, “Compositions and methods for inhibiting neurodegeneration” (priority 2005, published 2007).

The subject of data set [1] is motor neurons in embryonic rat spinal cord cultures. Kind of data set: Excitotoxicity assay (100 μM kainic acid) in mixed spinal cord cultures. Type of data set: cell-based. As to the method:
Unless otherwise specified, BDNF was added to all cultures.
Many previous in vitro investigations have identified motor neurons in mixed spinal cord cell culture by immunostaining for non-phosphorylated neurofilaments (or peripherin) and restricting analysis to cells with a soma diameter of 25 μm or greater (Carriedo et al., 2000; Hu and Kalb, 2003). We wanted to confirm the validity of this approach using an independent method for determining whether a given cell is a motor neuron. To specifically identify motor neurons in our cultures we purified these cells by metrizamide gradient and immunopanning techniques (Henderson et al., 1993; Fryer et al., 1999), live-labeled them with CM-DiI, and added these fluorescently-tagged, bona fide motor neurons to mixed cell cultures at the time of initial plating. All CM-DiI labeled cells stained for motor neurons markers such as non-phosphorylated neurofilament H (using antibody, SMI-32), peripherin, choline acetyl transferase (ChAT) and islet ½ (FIG. 1, panel a.). We then subjected spinal cord cultures to an excitotoxic insult and determined motor neuron survival using multiple methods for identifying motor neurons. […] Since all SMI-32 (+) cells with cell body diameter of 25 μm or greater were CM-DiI (+) and all CM-DiI (+) cells were SMI-32 (+), for the remainder of the studies herein, we could confidently study motor neuron death in vitro by counting SMI-32 (+) cells with a cell body diameter of 25 μm or greater.

For data set [2] the following is noted: Robeva et al.; cited from earlier work.
Data set [3] deals with IGF receptor tyrosine kinase (IGFR). Kind of data set: Immunoblot for phospho-IGFR in spinal cord cultures. Type of data set: cell-based, rat. As to the method:
(§1) Cells were lysed in 1% NP-40 lysis buffers containing protease inhibitors, subjected to SDS-PAGE and immunoblotted as previously described (Fryer et al., 1999; Fryer et al., 2000). For immunoprecipitation, lysates from 60 mm dishes were pre-cleared by incubation with protein A beads (Santa Cruz), incubated with primary antibody (4 μg/ml)×2 hours then 50 μL of beads added and incubated overnight with gentle agitation at 4° C. Beads were pelleted, washed 5× with 10 mM Tris pH 7.4+0.5 mM EGTA+0.5 mM EDTA+0.1% NP40 before elution in 1× Laemelli sample buffer. Antibody sources: BD Transduction Labs—TrkB and MAP Kinase used at 1:500, Cell Signaling—Akt 1:1000; phosphoTrk (tyr490) 1:1000; phospho p42/44 MAP Kinase (thr 202/tyr204) 1:1000; phosphoAkt (ser473) 1:500; IGFI antibody (tyr 1131) 1:500. Upstate—adenosine A2a 1:1000. Sigma—actin 1:200. Biosource—active src (clone 28) 1:200.
(§2) We followed up these observations by determining the effect of enprofylline on Trk signaling and determined the extent to which the resultant biochemical changes mimic the effects of direct pharmacological Trk antagonism with CEP4416. […] The effect of drug treatment on AKT was particularly marked. […] To determine the specificity of these agents, we examined their effect on Insulin-like growth factor 1 (IGF1) signaling through the IGF receptor tyrosine kinase (IGFR). […] It is unlikely that phosphodiesterase activity of enprofylline can explain these observations as increased cAMP levels enhance, not suppress, TrkB activation (Boulanger and Poo, 1999; Ji et al., 2005).
In general terms: In western blotting, separated proteins are transferred to a membrane and probed.

Data set [4] has as its system purified motor neurons.
Description: Embryonic Sprague-dawley rat spinal cord neurons were grown on previously established cortical astrocyte monolayers as previously described (Hu and Kalb, 2003). Briefly, the cerebral cortex of postnatal day (P) 1-3 rat pups was dissociated and plated on tissue culture plastic (Primeria) or laminin/polylysine coated glass overslips and maintained in Minimal Essential Media (10% horse serum, 10% fetal bovine serum) and 10 μM AraC was added for 1 day to arrest further proliferation when confluent. Under these conditions, no cortical neurons are present in these cultures. […]
The media was removed (and saved), cells were exposed to 100 μM kainic acid or vehicle in Locke's buffer for one hour, washed three times in Locke's buffer not containing kainic acid and the original media restored to each dish (Hu and Kalb, 2003). […] To quantify the number of stained cells, we counted the number of labeled cells from three non-overlapping fields using a 5× objective on a Zeiss upright Axioskop microscope and the value from one coverslip was averaged. […] When cell body diameter was assessed in select experiments, a reticule was introduced into an eye piece and the length of the long axis of a neuron noted. […]
In data set [5] the test system is Trk. Kind of data set: Immunoblot for phosphoTrk in spinal cord cultures. Type of data set: cell-based, rat. The procedure: as §1
We next asked about the effect of the adenosine A2 receptor antagonism on Trk signaling. Cultures of spinal cord cells (grown in the presence of a cocktail of trophic factors including 10 ng/ml BDNF) received KW6002 (1 μM), MRS1754 (50 nM) or vehicle (DMSO 0.1%) and 24 hrs. later, lysates were prepared for immunoblots for Trk and the MAP kinase downstream signaling module (FIG. 2, panel a). Immunoblots for phosphoTrk and phosphoMAPK were employed to monitor the state of activation of these proteins.
as §2

Several values for one entry are separate records, joined by “and”; a condition that tells them apart may be missing. Equal values may be shown once. Entries after “also recorded” stand apart in the source; their conditions may differ.

For `CCCn1c(=O)[nH]c(=O)c2[nH]cnc21` [enprofylline, 3-propylxanthine], the “% motor neuron death, short term (acute) treatment” value in data set [1] (drug added 30 minutes prior to excitotoxic challenge, counted 24 hours later) is ~40% and 46±4%. Further, in data set [1] (drug for 4 days (added 4 and 2 days) prior to 100 μM kainic acid 1 h, SMI-32(+) motor neurons counted 24 h later), the “excitotoxic motor neuron death” value is given as “completely blocked the loss of SMI(+) neurons; also recorded: no excitotoxic motor neuron death”. Besides, in data set [2], the bioavailability result was “good”. In data set [3] (24 hour pretreatment, then acute IGF1), the “IGF1-induced IGFR phosphorylation” value is given as “neither CEP-4416 nor enprofylline blunted the acute response; also recorded: undiminished by 24 hour pretreatment”. The “basal state of IGFR phosphorylation” value in data set [3] (24 hour treatment) is reported as “Neither drug led to an alteration in the abundance in the phosphorylated species; also recorded: had no effect on the basal state of IGFR phosphorylation”. Besides, the “% motor neuron death after excitotoxic insult” value in data set [4] (24 hours pre-treatment, grown in BDNF+CT1) was determined as 3±1%. In data set [4] (pre-treated for 24 hrs), the “death of motor neurons after kainic acid” value is reported as “No death of motor neurons occurred”. For the same molecule, the “abundance of phosphoTrk” value was “decrease in the abundance of phosphoTrk at all time points” in data set [5] (6, 24 or 48 hours, 100 μM enprofylline, 30 nM CEP-4416); “robust reduction in phosphoTrk, phosphoMAPK and phosphoAKT” in data set [5] (24 hours treatment); “decrease in phosphoTrk could still be detected” in data set [5] (48 hours post drug administration). Further, the “phosphorylation of Trk” value in data set [5] (6 hours post drug administration) is “decreases in the phosphorylation of Trk, MAP kinase and Akt”.
